Laboratory results as given in patent US8809306B2, “Combination andolast/glucocorticoids” (Rottapharm S.p.A., priority 2006, dated 2014).

Experiments:
[1] = system: human B lymphocytes from allergic donors; details: cited from earlier work
[2] = system: airway hyperresponsiveness; details: inhalation, 2 to 20 mg, mild-moderate asthmatic patients; AMP, exercise, UNDW, CAH; cited from earlier work
[3] = system: airway hyperresponsiveness induced by Sephadex G100 particles; assay: Sephadex G100-induced lung hyperresponsiveness in rats (bronchoconstriction by Ach); details: G-100 rats
[4] = system: T lymphocytes (Th2) production of IL-5; details: preliminary in-vivo data, atopic asthmatic patients; cited from earlier work
[5] = system: airway response following specific antigen challenge; details: asthmatic patients; cited from earlier work
[6] = system: eosinophils in the bronchoalveolar lavage (BAL) fluids; assay: Sephadex-induced eosinophilia: eosinophil counts in the BAL fluid

O=C(Nc1ccc(-c2nnn[nH]2)cc1)c1ccc(-c2nnn[nH]2)cc1 [Andolast, N-4-(5-tetrazolyl)-phenyl-4-(5-tetrazolyl)-benzamide]
effect on IL-4 dependent IgE synthesis [1]: potent inhibitory effect | airway hyperresponsiveness to specific and non-specific bronchostimulation challenges [2]: prevents in a dose-dependent fashion | Protective Effect (%) ([3]; Andolast 3 mg/kg i.m., calculated from Ach ED50): 33.3% | Ach ED50 ([3]; Andolast 3 mg/kg i.m., dose of Ach i.v. producing 50% response): 0.20 mg/kg | effect on Th2 production of IL-5 [4]: inhibitory effect | early and late airway response following specific antigen challenge [5]: completely prevents | counts of eosinophils in the BAL fluid ([6]; Andolast 3 mg/kg, Sephadex control 2.6×10^6): 1.75×10^6

C[C@]12C=CC(=O)C=C1CC[C@@H]1[C@@H]2[C@@H](O)C[C@@]2(C)[C@H]1CC[C@]2(O)C(=O)CO [Prednisolone]
Protective Effect (%) ([3]; Prednisolone 1 mg/kg orally): 11.1% | Protective Effect (%) ([3]; Prednisolone 10 mg/kg orally): 88.8% | counts of eosinophils in the BAL fluid ([6]; Prednisolone 1 mg/kg, Sephadex control 2.6×10^6, normal rats about 1×10^4): 2×10^6 | eosinophilia in the BAL fluids, in words ([6]; Prednisolone 10 mg/kg): totally suppressed
